Values after ≈ are worked out from the molar mass of the structure shown.
Assays:
Format in all cases: functional
[1] = tested on: Staphylococcus aureus; assay: Antibacterial activity against Staphylococcus aureus ATCC […]
[2] = tested on: Staphylococcus aureus; assay: Antibacterial activity against vancomycin-intermediate and ciprofloxacin-, gentamicin-resistant Staphylococcus aureus 1269618
[3] = tested on: Escherichia coli; assay: Antibacterial activity against vancomycin-, ciprofloxacin-, gentamicin-resistant Escherichia coli 1269652
[4] = tested on: Escherichia coli; assay: Antibacterial activity against Escherichia coli 0157:H07
[5] = tested on: Escherichia coli; assay: Antibacterial activity against Escherichia coli ATCC 25922
[6] = tested on: Staphylococcus epidermidis; assay: Antibacterial activity against Staphylococcus epidermidis 1269663
[7] = tested on: Staphylococcus epidermidis; assay: Antibacterial activity against oxymycin-, gentamicin-, levofloxacin-resistant Staphylococcus epidermidis 1269676
[8] = tested on: Staphylococcus warneri; assay: Antibacterial activity against Staphylococcus warneri 1269686
[9] = tested on: Staphylococcus aureus; assay: Antibacterial activity against vancomycin-intermediate and ciprofloxacin-, gentamicin-resistant Staphylococcus aureus 1269616
[10] = tested on: Escherichia coli; assay: Antibacterial activity against vancomycin-, ciprofloxacin-, gentamicin-resistant Escherichia coli 1269621
[11] = tested on: Staphylococcus aureus; assay: Antibacterial activity against Staphylococcus aureus ATCC 13709
[12] = tested on: Staphylococcus aureus; assay: Antibacterial activity against vancomycin-, ciprofloxacin-, gentamicin-resistant Staphylococcus aureus 1269615
[13] = tested on: Escherichia coli; assay: Antibacterial activity against vancomycin-, ciprofloxacin-, gentamicin-sensitive Escherichia coli 1269640
[14] = tested on: Escherichia coli; assay: Antibacterial activity against vancomycin-, ciprofloxacin-, gentamicin-resistant Escherichia coli 1269620
[15] = tested on: Staphylococcus aureus; assay: Antibacterial activity against vancomycin-sensitive and oxymycin-, ciprofloxacin-, gentamicin-resistant Staphylococcus aureus 9269619
[16] = tested on: Staphylococcus epidermidis; assay: Antibacterial activity against oxymycin-, gentamicin-, levofloxacin-resistant Staphylococcus epidermidis 1269680
[17] = tested on: Staphylococcus epidermidis; assay: Antibacterial activity against oxymycin and gentamicin-resistant Staphylococcus epidermidis 1269677
[18] = tested on: Staphylococcus epidermidis; assay: Antibacterial activity against oxymycin-, gentamicin-, levofloxacin-resistant Staphylococcus epidermidis 1269675
[19] = tested on: Staphylococcus capitis; assay: Antibacterial activity against Staphylococcus capitis 1269682
[20] = tested on: Escherichia coli; assay: Antibacterial activity against vancomycin-, ciprofloxacin-, gentamicin-resistant Escherichia coli 1269653
[21] = tested on: Staphylococcus aureus; assay: Antibacterial activity against oxymycin-sensitive Staphylococcus aureus 1269669
[22] = tested on: Staphylococcus aureus; assay: Antibacterial activity against oxymycin-sensitive Staphylococcus aureus 1269670
[23] = tested on: Staphylococcus aureus; assay: Antibacterial activity against vancomycin-, ciprofloxacin-, gentamicin-resistant Staphylococcus aureus 1269617

SMILES | MIC [1] [µg/mL] | MIC [2] [µg/mL] | MIC [3] [µg/mL] | MIC [4] [µg/mL] | MIC [5] [µg/mL] | MIC [6] [µg/mL] | MIC [7] [µg/mL] | MIC [8] [µg/mL] | MIC [9] [µg/mL] | MIC [10] [µg/mL] | MIC [11] [µg/mL] | MIC [12] [µg/mL] | MIC [13] [µg/mL] | MIC [14] [µg/mL] | MIC [15] [µg/mL] | MIC [16] [µg/mL] | MIC [17] [µg/mL] | MIC [18] [µg/mL] | MIC [19] [µg/mL] | MIC [20] [µg/mL] | also measured
NCC[C@H](O)C(=O)N[C@@H]1C[C@H](N)[C@@H](O[C@H]2O[C@H](CO)[C@@H](O)[C@H](O)[C@H]2N)[C@H](O[C@@H]2O[C@H](CO)[C@@H](O[C@H]3O[C@@H](CN)[C@@H](O)[C@H](O)[C@H]3N)[C@H]2O)[C@H]1O | 4 (≈ 5.58 µM) | > 128 | 32 (≈ 44.6 µM) | 8 (≈ 11.2 µM) | 8 (≈ 11.2 µM) | 1 (≈ 1.4 µM) | 0.5 (≈ 0.698 µM) | 0.25 (≈ 0.349 µM) | > 128 | 8 (≈ 11.2 µM) | 1.3 (≈ 1.81 µM) | > 128 | 16 (≈ 22.3 µM) | 8 (≈ 11.2 µM) | > 128 | 1 (≈ 1.4 µM) | 16 (≈ 22.3 µM) | 64 (≈ 89.3 µM) | 0.5 (≈ 0.698 µM) | 8 (≈ 11.2 µM) | MIC [21]: 4 µg/mL (≈ 5.58 µM); MIC [22]: 4 µg/mL (≈ 5.58 µM); MIC [23]: > 128 µg/mL
NC[C@@H]1O[C@H](O[C@H]2[C@@H](O)[C@H](O[C@@H]3[C@@H](O)[C@H](N)C[C@H](N)[C@H]3O[C@H]3O[C@H](CO)CC[C@H]3N)O[C@@H]2CO)[C@H](N)[C@@H](O)[C@@H]1O |  |  |  |  | 20 (≈ 34.3 µM) |  |  |  |  |  | 5 (≈ 8.57 µM) |  |  |  |  |  |  |  |  |  | 
NCC[C@H](O)C(=O)N[C@@H]1C[C@H](N)[C@@H](O[C@H]2O[C@H](CN)[C@@H](O)[C@H](O)[C@H]2N)[C@H](O[C@@H]2O[C@H](CO)[C@@H](O[C@H]3O[C@@H](CN)[C@@H](O)[C@H](O)[C@H]3N)[C@H]2O)[C@H]1O |  |  |  |  | 2.5 (≈ 3.49 µM) |  |  |  |  |  | 2.5 (≈ 3.49 µM) |  |  |  |  |  |  |  |  |  | 
NCC[C@@H](O)C(=O)N[C@H]1C[C@H](N)[C@@H](O[C@H]2O[C@H](CO)[C@@H](O)[C@H](O)[C@H]2N)[C@@H](O[C@H]2O[C@H](CO)[C@@H](O[C@H]3O[C@@H](CN)[C@@H](O)[C@H](O)[C@H]3N)[C@H]2OCCNCCc2ccccc2)[C@H]1O | 0.25 (≈ 0.289 µM) | 128 (≈ 148 µM) | 8 (≈ 9.26 µM) | 1 (≈ 1.16 µM) | 2 (≈ 2.31 µM) | < 0.12 | < 0.12 | < 0.12 | 128 (≈ 148 µM) | 2 (≈ 2.31 µM) | 0.6 (≈ 0.694 µM) | 64 (≈ 74.1 µM) | 4 (≈ 4.63 µM) | 1 (≈ 1.16 µM) | > 128 | < 0.12 | < 0.12 | 16 (≈ 18.5 µM) | < 0.12 | 2 (≈ 2.31 µM) | MIC [21]: < 0.12 µg/mL; MIC [22]: < 0.12 µg/mL; MIC [23]: 32 µg/mL (≈ 37 µM)
NC[C@@H]1O[C@H](O[C@H]2[C@@H](OCCNCCc3ccccc3)[C@@H](O[C@H]3[C@@H](O)[C@@H](N)C[C@@H](N)[C@H]3O[C@H]3O[C@H](CO)CC[C@H]3N)O[C@@H]2CO)[C@H](N)[C@@H](O)[C@@H]1O |  |  |  |  | 40 (≈ 54.7 µM) |  |  |  |  |  | 1 (≈ 1.37 µM) |  |  |  |  |  |  |  |  |  | 
NCC[C@H](O)C(=O)N[C@@H]1C[C@H](N)[C@@H](O[C@H]2O[C@H](CO)CC[C@H]2N)[C@H](O[C@@H]2O[C@H](CO)[C@@H](O[C@H]3O[C@@H](CN)[C@@H](O)[C@H](O)[C@H]3N)[C@H]2OCCNCCc2ccccc2)[C@H]1O | > 0.12 | 0.5 (≈ 0.601 µM) | 16 (≈ 19.2 µM) | 1 (≈ 1.2 µM) | 8 (≈ 9.62 µM) | < 0.12 | < 0.12 | < 0.12 | 0.5 (≈ 0.601 µM) | 4 (≈ 4.81 µM) | 0.6 (≈ 0.721 µM) | 0.25 (≈ 0.3 µM) | 8 (≈ 9.62 µM) | 4 (≈ 4.81 µM) | 1 (≈ 1.2 µM) | < 0.12 | < 0.12 | < 0.12 | < 0.12 | 8 (≈ 9.62 µM) | MIC [21]: 0.25 µg/mL (≈ 0.3 µM); MIC [22]: 0.25 µg/mL (≈ 0.3 µM); MIC [23]: 0.25 µg/mL (≈ 0.3 µM)
NC[C@@H]1O[C@H](O[C@H]2[C@@H](OCCNCCc3ccccc3)[C@H](O[C@@H]3[C@@H](O)[C@H](N)C[C@H](N)[C@H]3O[C@H]3O[C@H](CO)[C@@H](O)[C@H](O)[C@H]3N)O[C@@H]2CO)[C@H](N)[C@@H](O)[C@@H]1O |  |  |  |  | 3 (≈ 3.93 µM) |  |  |  |  |  | 0.3 (≈ 0.393 µM) |  |  |  |  |  |  |  |  |  | 
NCC[C@H](O)C(=O)N[C@@H]1C[C@H](N)[C@@H](O[C@H]2O[C@H](CN)[C@@H](O)[C@H](O)[C@H]2O)[C@H](O)[C@H]1O[C@H]1O[C@H](CO)[C@@H](O)[C@H](N)[C@H]1O [AMIKACIN] | 2 (≈ 3.42 µM) | 16 (≈ 27.3 µM) | 64 (≈ 109 µM) | 1 (≈ 1.71 µM) | 2 (≈ 3.42 µM) | 0.8 (≈ 1.37 µM) | 4 (≈ 6.83 µM) | < 0.25 | 16 (≈ 27.3 µM) | 2 (≈ 3.42 µM) |  | 16 (≈ 27.3 µM) | 8 (≈ 13.7 µM) | 2 (≈ 3.42 µM) | 16 (≈ 27.3 µM) | 8 (≈ 13.7 µM) | 4 (≈ 6.83 µM) | 8 (≈ 13.7 µM) | 0.5 (≈ 0.854 µM) | 8 (≈ 13.7 µM) | MIC [21]: 2 µg/mL (≈ 3.42 µM); MIC [22]: 1 µg/mL (≈ 1.71 µM); MIC [23]: 8 µg/mL (≈ 13.7 µM)
NC[C@@H]1O[C@H](O[C@H]2[C@@H](O)[C@H](O[C@@H]3[C@@H](O)[C@H](N)C[C@H](N)[C@H]3O[C@H]3O[C@H](CN)[C@@H](O)[C@H](O)[C@H]3N)O[C@@H]2CO)[C@H](N)[C@@H](O)[C@@H]1O [FRAMYCETIN] |  |  |  |  | 3 (≈ 4.88 µM) |  |  |  |  |  | 1 (≈ 1.63 µM) |  |  |  |  |  |  |  |  |  | 
CN[C@@H]1[C@@H](O)[C@@H](O[C@@H]2[C@@H](O)[C@H](O[C@H]3O[C@H]([C@@H](C)NC)CC[C@H]3N)[C@@H](N)C[C@H]2N)OC[C@]1(C)O [GENTAMICIN C1] | 0.5 (≈ 1.05 µM) | 64 (≈ 134 µM) | > 128 | 0.5 (≈ 1.05 µM) | 1 (≈ 2.09 µM) | < 0.12 | 32 (≈ 67 µM) | < 0.12 | 64 (≈ 134 µM) | 64 (≈ 134 µM) |  | 32 (≈ 67 µM) | 4 (≈ 8.38 µM) | 64 (≈ 134 µM) | 128 (≈ 268 µM) | 64 (≈ 134 µM) | 16 (≈ 33.5 µM) | 32 (≈ 67 µM) | 0.12 (≈ 0.251 µM) | > 128 | MIC [21]: 0.25 µg/mL (≈ 0.523 µM); MIC [22]: 0.25 µg/mL (≈ 0.523 µM); MIC [23]: 32 µg/mL (≈ 67 µM)
NC[C@@H]1O[C@H](O[C@H]2[C@@H](O)[C@H](O[C@@H]3[C@@H](O)[C@H](N)C[C@H](N)[C@H]3O[C@H]3O[C@H](CO)[C@@H](O)[C@H](O)[C@H]3N)O[C@@H]2CO)[C@H](N)[C@@H](O)[C@@H]1O [PAROMOMYCIN] |  |  |  |  | 3 (≈ 4.87 µM) |  |  |  |  |  | 1 (≈ 1.62 µM) |  |  |  |  |  |  |  |  |  | 

Source: ChEMBL document CHEMBL1287692, “Structure-based design, synthesis and A-site rRNA co-crystal complexes of novel amphiphilic aminoglycoside antibiotics with new binding modes: a synergistic hydrophobic effect against resistant bacteria” (2010)
